Measured values from PMC9934367, “Functional impact of subunit composition and compensation on Drosophila melanogaster nicotinic receptors–targets of neonicotinoids” (PLOS Genetics, 2023).

System: D. melanogaster nAChRs
Assay: Comparison of agonist activity between nAChRs expressed in X. laevis oocytes (one-way ANOVA, Kruskal-Wallis)
Type: cell-based
Procedure: We minimised the use of X. laevis according to the UK Animals (Scientific Procedures) Act, 1986. […] Oocytes were defolliculated after collagenase treatment in Ca^2+-free standard oocyte saline (Ca^2+-free SOS). cRNAs of the nAChR subunits and co-factors mixed at a concentration of 0.1 mg/mL was injected into oocytes at a volume of 50 nL. Then the oocytes were incubated in the incubation medium (SOS supplemented with sodium pyruvate (Nacalai Tesque, #13058–12), penicillin-streptomycin (MilliporeSigma, #P4333), gentamycin (Nacalai Tesque, #16672–04), and 4% horse serum (Thermo Fisher Scientific, #26050–070) for 3−4 days prior to electrophysiology.
Each defolliculated X. laevis oocyte was secured in a Perspex recording chamber and perfused with the standard oocyte saline (SOS) containing 0.5 μM atropine (SOSA) at a flow rate of 7−10 mL/min [48]. Two glass electrodes filled with 2 M KCl were impaled into each oocyte and the membrane potential was clamped at -100 mV. […] The peak amplitude of the response was measured and analysed by pCLAMP (Molecular Devices, USA).
Y=Imax/1+10^(logEC50‐X)nH
Where Y is the normalised response, X is log[ligand (M)], EC50 is the half maximal concentration (M), Imax is the maximum normalised response and nH is the Hill coefficient.
Prism software was employed for the statistical analyses. […] One-way ANOVA was used to analyse the differences of the ligand agonist activity in terms of pEC50 on the various nAChRs expressed in X. laevis as well as data obtained with D. melanogaster larvae and adults.

[1] = Dα1/Dβ1/Dβ2 vs. Dα1/Dα3/Dβ1/Dβ2
[2] = Dα1/Dβ1/Dβ2 vs. Dα2/Dα3/Dβ1/Dβ2
[3] = Dα1/Dβ1 vs. Dα1/Dα2/Dα3/Dβ1/Dβ2
[4] = Dα2/Dα3/Dβ1/Dβ2 vs. Dα1/Dα2/Dα3/Dβ1/Dβ2
[5] = Dα2/Dα3/Dβ1 vs. Dα1/Dα2/Dα3/Dβ1
[6] = Dα2/Dα3/Dβ1 vs. Dα1/Dα2/Dα3/Dβ1/Dβ2
[7] = Dα2/Dα3/Dβ1 vs. Dα1/Dα2/Dβ1/Dβ2
[8] = Dα2/Dα3/Dβ1 vs. Dα1/Dα3/Dβ1/Dβ2
[9] = Dα2/Dα3/Dβ1 vs. Dα2/Dα3/Dβ1/Dβ2
[10] = Dα3/Dβ1/Dβ2 vs. Dα1/Dα2/Dα3/Dβ1/Dβ2
[11] = Dα3/Dβ1/Dβ2 vs. Dα1/Dα2/Dβ1/Dβ2
[12] = Dα3/Dβ1/Dβ2 vs. Dα1/Dα3/Dβ1/Dβ2
[13] = Dα3/Dβ1/Dβ2 vs. Dα2/Dα3/Dβ1/Dβ2
[14] = Dα3/Dβ1 vs. Dα1/Dα2/Dα3/Dβ1/Dβ2

CN/C(=N\[N+](=O)[O-])NCc1cnc(Cl)s1 [Clothianidin, clothianidin]
Difference of Imax values, nAChRs compared [1]: -0.324
Difference of pEC50 values, nAChRs compared [1]: -0.76
Difference of Imax values, nAChRs compared [2]: -0.274
Difference of pEC50 values, nAChRs compared [2]: -0.65
Difference of Imax values, nAChRs compared (Dα1/Dβ1/Dβ2 vs. Dα3/Dβ1/Dβ2): -0.132
Difference of pEC50 values, nAChRs compared (Dα1/Dβ1/Dβ2 vs. Dα3/Dβ1/Dβ2): -0.82
Difference of Imax values, nAChRs compared (Dα1/Dβ1 vs. Dα1/Dα2/Dα3/Dβ1): -0.309
Difference of pEC50 values, nAChRs compared (Dα1/Dβ1 vs. Dα1/Dα2/Dα3/Dβ1): 0.58
Difference of Imax values, nAChRs compared [3]: -0.304
Difference of pEC50 values, nAChRs compared [3]: 0.54
Difference of Imax values, nAChRs compared (Dα1/Dβ1 vs. Dα1/Dα2/Dβ1): -0.191
Difference of pEC50 values, nAChRs compared (Dα1/Dβ1 vs. Dα1/Dα2/Dβ1): 2.06
Difference of Imax values, nAChRs compared (Dα1/Dβ1 vs. Dα1/Dα2/Dβ1/Dβ2): -0.292
Difference of pEC50 values, nAChRs compared (Dα1/Dβ1 vs. Dα1/Dα2/Dβ1/Dβ2): 0.82
Difference of Imax values, nAChRs compared (Dα1/Dβ1 vs. Dα1/Dα3/Dβ1): -0.119
Difference of pEC50 values, nAChRs compared (Dα1/Dβ1 vs. Dα1/Dα3/Dβ1): -0.07
Difference of Imax values, nAChRs compared (Dα1/Dβ1 vs. Dα1/Dα3/Dβ1/Dβ2): -0.176
Difference of pEC50 values, nAChRs compared (Dα1/Dβ1 vs. Dα1/Dα3/Dβ1/Dβ2): -0.27
Difference of Imax values, nAChRs compared (Dα1/Dβ1 vs. Dα1/Dβ1/Dβ2): 0.148
Difference of pEC50 values, nAChRs compared (Dα1/Dβ1 vs. Dα1/Dβ1/Dβ2): 0.49
Difference of Imax values, nAChRs compared (Dα1/Dβ1 vs. Dα2/Dα3/Dβ1): -0.374
Difference of pEC50 values, nAChRs compared (Dα1/Dβ1 vs. Dα2/Dα3/Dβ1): 0.32
Difference of Imax values, nAChRs compared (Dα1/Dβ1 vs. Dα2/Dα3/Dβ1/Dβ2): -0.126
Difference of pEC50 values, nAChRs compared (Dα1/Dβ1 vs. Dα2/Dα3/Dβ1/Dβ2): -0.16
Difference of Imax values, nAChRs compared (Dα1/Dβ1 vs. Dα3/Dβ1): -0.183
Difference of pEC50 values, nAChRs compared (Dα1/Dβ1 vs. Dα3/Dβ1): -0.41
Difference of Imax values, nAChRs compared (Dα1/Dβ1 vs. Dα3/Dβ1/Dβ2): 0.016
Difference of pEC50 values, nAChRs compared (Dα1/Dβ1 vs. Dα3/Dβ1/Dβ2): -0.33
Difference of Imax values, nAChRs compared [4]: -0.178
Difference of pEC50 values, nAChRs compared [4]: 0.70
Difference of Imax values, nAChRs compared [5]: 0.065
Difference of pEC50 values, nAChRs compared [5]: 0.26
Difference of Imax values, nAChRs compared [6]: 0.070
Difference of pEC50 values, nAChRs compared [6]: 0.22
Difference of Imax values, nAChRs compared [7]: 0.082
Difference of pEC50 values, nAChRs compared [7]: 0.50
Difference of Imax values, nAChRs compared [8]: 0.198
Difference of pEC50 values, nAChRs compared [8]: -0.59
Difference of Imax values, nAChRs compared (Dα2/Dα3/Dβ1 vs. Dα1/Dβ1/Dβ2): 0.522
Difference of pEC50 values, nAChRs compared (Dα2/Dα3/Dβ1 vs. Dα1/Dβ1/Dβ2): 0.17
Difference of Imax values, nAChRs compared [9]: 0.248
Difference of pEC50 values, nAChRs compared [9]: -0.48
Difference of Imax values, nAChRs compared (Dα2/Dα3/Dβ1 vs. Dα3/Dβ1/Dβ2): 0.390
Difference of pEC50 values, nAChRs compared (Dα2/Dα3/Dβ1 vs. Dα3/Dβ1/Dβ2): -0.65
Difference of Imax values, nAChRs compared [10]: -0.320
Difference of pEC50 values, nAChRs compared [10]: 0.87
Difference of Imax values, nAChRs compared [11]: -0.308
Difference of pEC50 values, nAChRs compared [11]: 1.15
Difference of Imax values, nAChRs compared [12]: -0.192
Difference of pEC50 values, nAChRs compared [12]: 0.06
Difference of Imax values, nAChRs compared [13]: -0.142
Difference of pEC50 values, nAChRs compared [13]: 0.17
Difference of Imax values, nAChRs compared (Dα3/Dβ1 vs. Dα1/Dα2/Dα3/Dβ1): -0.126
Difference of pEC50 values, nAChRs compared (Dα3/Dβ1 vs. Dα1/Dα2/Dα3/Dβ1): 0.99
Difference of Imax values, nAChRs compared [14]: -0.121
Difference of pEC50 values, nAChRs compared [14]: 0.95
Difference of Imax values, nAChRs compared (Dα3/Dβ1 vs. Dα1/Dα2/Dβ1): -0.008
Difference of pEC50 values, nAChRs compared (Dα3/Dβ1 vs. Dα1/Dα2/Dβ1): 2.47
Difference of Imax values, nAChRs compared (Dα3/Dβ1 vs. Dα1/Dα2/Dβ1/Dβ2): -0.109
Difference of pEC50 values, nAChRs compared (Dα3/Dβ1 vs. Dα1/Dα2/Dβ1/Dβ2): 1.23
Difference of Imax values, nAChRs compared (Dα3/Dβ1 vs. Dα1/Dα3/Dβ1): 0.064
Difference of pEC50 values, nAChRs compared (Dα3/Dβ1 vs. Dα1/Dα3/Dβ1): 0.34
Difference of Imax values, nAChRs compared (Dα3/Dβ1 vs. Dα1/Dα3/Dβ1/Dβ2): 0.007
Difference of pEC50 values, nAChRs compared (Dα3/Dβ1 vs. Dα1/Dα3/Dβ1/Dβ2): 0.14
Difference of Imax values, nAChRs compared (Dα3/Dβ1 vs. Dα1/Dβ1/Dβ2): 0.331
Difference of pEC50 values, nAChRs compared (Dα3/Dβ1 vs. Dα1/Dβ1/Dβ2): 0.90
Difference of Imax values, nAChRs compared (Dα3/Dβ1 vs. Dα2/Dα3/Dβ1): -0.191
Difference of pEC50 values, nAChRs compared (Dα3/Dβ1 vs. Dα2/Dα3/Dβ1): 0.73
Difference of Imax values, nAChRs compared (Dα3/Dβ1 vs. Dα2/Dα3/Dβ1/Dβ2): 0.057
Difference of pEC50 values, nAChRs compared (Dα3/Dβ1 vs. Dα2/Dα3/Dβ1/Dβ2): 0.25
Difference of Imax values, nAChRs compared (Dα3/Dβ1 vs. Dα3/Dβ1/Dβ2): 0.199
Difference of pEC50 values, nAChRs compared (Dα3/Dβ1 vs. Dα3/Dβ1/Dβ2): 0.08
